In US6225332A, “Compositions containing histamine H2 agonists and methods of use in treating allergy and inflammation” (priority 1998, dated 2001):

What was measured:
[1] = test system: human conjunctival mast cells; assay: Miller Test: inhibition of anti-IgE-induced histamine release (mast cell stabilization assay); assay type: cell-based; conditions: for inhibition at 10 µM / inhibition at 100 µM: * p < 0.05, Dunnett's t-test (dimaprit only); for inhibition at 1000 µM: * p < 0.05, Dunnett's t-test (both compounds)
Excerpt: While mast cells exist in various tissues and species, there is considerable mast cell heterogeneity within these different sources. Therefore, in order to provide compounds of the present invention which are specific for human conjunctival mast cells, drug compounds need to be tested for inhibition of human conjunctival mast cell degranulation using human conjunctival mast cells. Such efficacy can be determined by using the method described in U.S. Pat. No. 5,360,720 (Miller et al.) and in Miller, et al., "Human conjunctival mast cell responses in vitro to various secretagogues," Ocular Immunology and Inflammation, volume 4, issue 1, pages 39-49 (1996) (the "Miller Test"), the entire contents of the forgoing patent and article are incorporated herein by reference.
The Miller Test is generally performed by the following protocol:
Human conjunctival tissue mast cells are isolated from post-mortem tissue donors obtained within 8 hours of death by various eye banks and transported in Dexsole corneal preservation medium. Tissues are then enzymatically digested by repeated exposure (30 minutes at 37° C.) to collagenase (Type IV) and hyaluronidase (Type I-S) (2 times with 200 U […] each/gram tissue, then 2-4 times with 2000 U each/gram tissue) in Tyrode's buffer containing 0.1% gelatin. Each digestion mixture is filtered over Nitex® cloth (100 µm mesh) and washed with an equal volume of buffer. Filtrates are centrifuged at 825×g (7 mininutes). Pellets are resuspended in buffer then combined for enrichment over a […] Percoll® cushion. The enriched pellet is then washed and resuspended in supplemented RPMI 1640 medium for equilibration at 37° C.
The preparations containing the mast cells are then placed in a culture medium, preferably supplemented RPMI 1640, and allowed to equilibrate at about 30°-37° C. for a minimum of about 40 hours.
After equilibrating for a minimum of about 40 hours, the cells may be harvested from the culture (for example, by gentle flushing utilizing pasteur pipettes), pooled and centrifuged.
Cell pellets may then be resuspended in buffer and viability and mast cell number determined by well known methods. The conjunctival mast cells are now prepared for use in mast cell stabilization assays.
All test drugs are placed into solution immediately prior to use. Generally, each compound is dissolved in Tyrode's buffer containing 0.1% gelatin and diluted to an appropriate concentration.
Cells are harvested from the culture plate and counted for viability (trypan blue exclusion) and mast cell number (toluidine blue O). Mast cells (5000/tube; 1 milliliter ("mL," final volume) are then challenged (37° C.) for 15 minutes with goat-anti-human IgE (10 μg/mL) following treatment (1 or 15 minutes; 37° C.) with test drug or Tyrode's buffer. Total and non-specific release controls are exposed to 0.1% Triton X-100 and goat IgG (10 μg/mL), respectively. The reaction was terminated by centrifugation (500×g, 4° C., 10 minutes). Supernatants are stored at -20° C. until analyzed for histamine content by radioimmunoassay ("RIA").
The IC50 of each compound (concentration at which 50% of the histamine release was inhibited, as compared to control) was then calculated.
The H2 agonists, dimaprit and amthamine, were tested in the Miller Test, as described in Example 1, above. Table I and FIG. 1 illustrate the efficacy of dimaprit and amthamine on the inhibition of histamine release from human conjunctival mast cells.

[2] = test system: human skin mast cells; conditions: cited from earlier work
[3] = test system: rodent mast cell; conditions: cited from earlier work
[4] = test system: mast cells obtained from bronchoalveolar lavage fluid; conditions: 100 μM; human trials; cited from earlier work
[5] = human, in vivo; cited from earlier work

In the case of `CN(C)CCCSC(=N)N` [dimaprit], the inhibition at 1 µM [1] is reported as 10.1 ± 4.2%, the inhibition at 10 µM [1] is reported as 14.4 ± 9.3% and the inhibition at 100 µM [1] is reported as 35 ± 3.5%. The inhibition at 1000 µM [1] was 75.9 ± 3.5% and the inhibition at 10000 µM ([1]; 10,000 μM, * p < 0.05, Dunnett's t-test) was 83.6 ± 0.9%.

In the case of `O=C(O)c1cc(=O)c2c(OCC(O)COc3cccc4oc(C(=O)O)cc(=O)c34)cccc2o1` [Disodium cromoglycate], the “inhibition of histamine release from human skin mast cells” value [2] is listed as “not inhibited at all”, the “inhibition of rodent mast cell degranulation” value [3] is listed as “shown to inhibit rodent mast cell degranulation” and the “inhibition of mast cells obtained from bronchoalveolar lavage fluid” value [4] is listed as “inhibited mast cells obtained from bronchoalveolar lavage fluid”. For the same compound, the “irritation / side effects” value [5] was “irritating to some patients”.

For `Cc1nc(N)sc1CCN` [amthamine], the inhibition at 0.1 µM ([1]; 0.1 μM) was 11%, the inhibition at 1 µM [1] was 3.6 ± 3.9% and the inhibition at 10 µM [1] was 7.3 ± 6.5%. For the same compound, the inhibition at 100 µM [1] was 9.9 ± 8.6% and the inhibition at 1000 µM [1] was 60.5 ± 6.2%.
